Data as given in the supplement of paper PMC11061612.

Legend:
[1] = compound: C=CCn1c(=O)c2cnc(Nc3ccc(N4CCN(C)CC4)cc3)nc2n1-c1cccc(C(C)(C)O)n1 [AZD1775]; settings: max 3 µM
Method in brief: (§1)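 In 1536-well plates, cancer cell lines in 7.5 μl DMEM/F12 or RPMI with 10% FBS spent 24 hours at 37°C and 5% CO2 and were then dosed for 72 hours with final DMSO typically 0.2%. Viability was read by CellTiter-Glo 2.0 luminescence and scaled between blank-well and DMSO-well means. The single-agent IC50 was fitted from dose responses using a logistic curve in a non-linear mixed effects model, and that logistic curve had two parameters.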

[2] = compound: CC(=O)Nc1cccc(-n2c(=O)n(C3CC3)c(=O)c3c(Nc4ccc(I)cc4F)n(C)c(=O)c(C)c32)c1 [Trametinib]; settings: max 1 µM
Method in brief: as §1

[3] = compound: Cc1cc2ncnn2cc1Nc1ncc2c(n1)n(C1CCOCC1)c(=O)n2C [AZD7648]; settings: max 10 µM
Method in brief: as §1

[4] = compound: O=c1[nH]cc(F)c(=O)[nH]1 [5-Fluorouracil]; settings: max 20 µM
Method in brief: as §1

[5] = compound: Nc1ccn([C@@H]2O[C@H](CO)[C@@H](O)C2(F)F)c(=O)n1 [Gemcitabine]; settings: max 0.3 µM
Method in brief: as §1

[6] = compound: COc1cc([C@@H]2c3cc4c(cc3[C@@H](O[C@@H]3O[C@@H]5CO[C@@H](C)O[C@H]5[C@H](O)[C@H]3O)[C@H]3COC(=O)[C@H]23)OCO4)cc(OC)c1O [Etoposide]; settings: max 10 µM
Method in brief: as §1

[7] = compound: C1CN(CCC1(C(=O)N[C@@H](CCO)C2=CC=C(C=C2)Cl)N)C3=NC=NC4=C3C=CN4 [AZD5363]; settings: max 10 µM
Method in brief: as §1

[8] = compound: Cc1nc(-c2cn3c(n2)-c2ccc(-c4cnn(C(C)(C)C(N)=O)c4)cc2OCC3)n(C(C)C)n1 [Taselisib]; settings: max 10 µM
Method in brief: as §1

[9] = compound: CC(=O)c1c(C)c2cnc(Nc3ccc(N4CCNCC4)cn3)nc2n(C2CCCC2)c1=O [Palbociclib]; settings: max 10 µM
Method in brief: as §1

[10] = compound: CCc1c2c(nc3ccc(O)cc13)-c1cc3c(c(=O)n1C2)COC(=O)[C@]3(O)CC [SN-38]; settings: max 0.3 µM
Method in brief: as §1

[11] = compound: CC1=CN2[C@@H](C1)C=NC3=CC(=C(C=C3C2=O)OC)OCCCCCOC4=C(C=C5C(=C4)N=C[C@@H]6CC(=CN6C5=O)C)OC [SG3199]; settings: max 0.001 µM
Method in brief: as §1

[12] = compound: COc1cc2ncnc(Nc3ccc(F)c(Cl)c3)c2cc1OCCCN1CCOCC1 [Gefitinib]; settings: max 10 µM
Method in brief: as §1

[13] = compound: C[C@@H](Nc1cc(F)cc(F)c1)c1cc(C(=O)N(C)C)cc2c(=O)cc(N3CCOCC3)oc12 [AZD8186]; settings: max 10 µM
Method in brief: as §1

[14] = compound: CC1=C(C(=CC=C1)Cl)NC(=O)C2=CN=C(S2)NC3=CC(=NC(=N3)C)N4CCN(CC4)CCO [Dasatinib]; settings: max 2 µM
Method in brief: as §1

[15] = compound: COc1cccc2c1C(=O)c1c(O)c3c(c(O)c1C2=O)C[C@@](O)(C(=O)CO)C[C@@H]3O[C@H]1C[C@H](N)[C@H](O)[C@H](C)O1 [Doxorubicin]; settings: max 1 µM
Method in brief: as §1

[16] = compound: N#Cc1cnc(Nc2cc(NC[C@H]3CNCCO3)c(C(F)(F)F)cn2)cn1 [SRA737]; settings: max 10 µM
Method in brief: as §1

[17] = compound: Cc1c2c(nn1C)CSCc1cc(n(C)n1)CSc1cc(c3ccccc3c1)OCCCc1c(C(=O)O)n(C)c3c-2c(Cl)ccc13 [AZD5991]; settings: max 1 µM
Method in brief: as §1

[18] = compound: C[C@@H](Oc1cc(-c2cnn(C3CCNCC3)c2)cnc1N)c1c(Cl)ccc(F)c1Cl [Crizotinib]; settings: max 10 µM
Method in brief: as §1

[19] = compound: NC1(c2ccc(-c3nc4ccn5c(=O)[nH]nc5c4cc3-c3ccccc3)cc2)CCC1 [MK-2206]; settings: max 10 µM
Method in brief: as §1

[20] = compound: CCN(CCO)CCCOc1ccc2c(Nc3cc(CC(=O)Nc4cccc(F)c4)[nH]n3)ncnc2c1 [AZD2811]; settings: max 1 µM
Method in brief: as §1

[21] = compound: COc1nnc2ccc(N3CCC(c4ccc(OCCN5CCN(C)C(=O)[C@H]5C)cc4)CC3)nn12 [AZD5153]; settings: max 1 µM
Method in brief: as §1

[22] = compound: C[C@@H]1COCCN1C2=NC(=NC(=C2)C3(CC3)[S@](=N)(=O)C)C4=C5C=CNC5=NC=C4 [AZD6738]; settings: max 10 µM
Method in brief: as §1

[23] = compound: O=C(Nc1ccc2[nH]nc(-c3ccncc3)c2c1)[C@@H]1CCN(CC(=O)N2CCN(c3ccc(-c4ncccn4)cc3)CC2)C1; settings: max 5 µM
Method in brief: as §1

[24] = compound: CC(C)n1c(=O)n(C)c2cnc3cc(F)c(-c4ccc(OCCCN5CCCCC5)nc4)cc3c21 [AZD1390]; settings: max 0.3 µM
Method in brief: as §1

[25] = compound: CN(CC[C@H](CSC1=CC=CC=C1)NC2=C(C=C(C=C2)S(=O)(=O)NC(=O)C3=CC=C(C=C3)N4CCC(CC4)[C@H](C5=CC=CC=C5C6=CC=C(C=C6)Cl)O)S(=O)(=O)C(F)(F)F)CCO [AZD4320]; settings: max 1 µM
Method in brief: as §1

[26] = compound: CS(=O)(=O)CCNCc1ccc(-c2ccc3ncnc(Nc4ccc(OCc5cccc(F)c5)c(Cl)c4)c3c2)o1 [Lapatinib]; settings: max 10 µM
Method in brief: as §1

[27] = compound: C[C@@H](c1ccc2nccn2c1)n1nnc2ncc(-c3cnn(C)c3)nc21 [Savolitinib]; settings: max 1 µM
Method in brief: as §1

[28] = compound: CN(C)CCCOc1ccc(-c2ccc3ncc4c(c3c2)n(C2CCOCC2)c(=O)n4C)cn1 [AZD0156]; settings: max 3 µM
Method in brief: as §1

[29] = compound: O=C(c1cc(Cc2n[nH]c(=O)c3ccccc23)ccc1F)N1CCN(C(=O)C2CC2)CC1 [Olaparib]; settings: max 10 µM
Method in brief: as §1

[30] = compound: C1CC(C1)(C(=O)[O-])C(=O)[O-].N.N.[Pt+2] [Carboplatin]; settings: max 10 µM
Method in brief: as §1

[31] = compound: COc1cc(Nc2ncc3c(n2)-c2ccc(Cl)cc2C(c2c(F)cccc2OC)=NC3)ccc1C(=O)O [Alisertib]; settings: max 10 µM
Method in brief: as §1

[32] = compound: CC(=O)O[C@H]1C(=O)[C@@]2(C)[C@H]([C@H](OC(=O)c3ccccc3)[C@]3(O)C[C@H](OC(=O)[C@H](O)[C@@H](NC(=O)c4ccccc4)c4ccccc4)C(C)=C1C3(C)C)[C@]1(OC(C)=O)CO[C@@H]1C[C@@H]2O [Paclitaxel]; settings: max 3 µM
Method in brief: as §1

[33] = compound: CC1(C)CCC(CN2CCN(c3ccc(C(=O)NS(=O)(=O)c4ccc(NCC5CCOCC5)c([N+](=O)[O-])c4)c(Oc4cnc5[nH]ccc5c4)c3)CC2)=C(c2ccc(Cl)cc2)C1 [Venetoclax]; settings: max 1 µM
Method in brief: as §1

[34] = compound: Cn1cnc2c(F)c(Nc3ccc(Br)cc3Cl)c(C(=O)NOCCO)cc21 [Selumetinib]; settings: max 10 µM
Method in brief: as §1

[35] = compound: COc1cccc(OCCCN)c1-c1cc(Nc2cnc(C#N)cn2)n[nH]1 [Prexasertib]; settings: max 1 µM
Method in brief: as §1

Cell Line | IC50, cell viability 72 h [1] [nM] | IC50, cell viability 72 h [2] [nM] | IC50, cell viability 72 h [3] [nM] | IC50, cell viability 72 h [4] [nM] | IC50, cell viability 72 h [5] [nM] | IC50, cell viability 72 h [6] [nM] | IC50, cell viability 72 h [7] [nM] | IC50, cell viability 72 h [8] [nM] | IC50, cell viability 72 h [9] [nM] | IC50, cell viability 72 h [10] [nM] | IC50, cell viability 72 h [11] [nM] | IC50, cell viability 72 h [12] [nM] | IC50, cell viability 72 h [13] [nM] | IC50, cell viability 72 h [14] [nM] | IC50, cell viability 72 h [15] [nM] | IC50, cell viability 72 h [16] [nM] | IC50, cell viability 72 h [17] [nM] | IC50, cell viability 72 h [18] [nM] | IC50, cell viability 72 h [19] [nM] | IC50, cell viability 72 h [20] [nM] | IC50, cell viability 72 h [21] [nM] | IC50, cell viability 72 h [22] [nM] | IC50, cell viability 72 h [23] [nM] | IC50, cell viability 72 h [24] [nM] | IC50, cell viability 72 h [25] [nM] | IC50, cell viability 72 h [26] [nM] | IC50, cell viability 72 h [27] [nM] | IC50, cell viability 72 h [28] [nM] | IC50, cell viability 72 h [29] [nM] | IC50, cell viability 72 h [30] [nM] | IC50, cell viability 72 h [31] [nM] | IC50, cell viability 72 h [32] [nM] | IC50, cell viability 72 h [33] [nM] | IC50, cell viability 72 h [34] [nM] | IC50, cell viability 72 h [35] [nM]
CCK-81 (Colorectal Carcinoma) | 661 | 208 | > 10000 | 7320 | 50.3 | > 10000 | > 10000 | 1180 | > 10000 | 76.7 | > 1 | 997 | > 10000 | > 2000 | > 1000 | 876 | 634 | 8320 | > 10000 | > 1000 | 160 | 1570 | 4810 | > 300 | > 1000 | 484 | > 1000 | > 3000 | > 10000 | > 10000 | > 10000 | 101 | > 1000 | 9240 | 10.7
COLO-320-HSR (Colorectal Carcinoma) | 459 | > 1000 | > 10000 | > 20000 | 260 | > 10000 | > 10000 | > 10000 | > 10000 | > 300 | > 1 | > 10000 | > 10000 | > 2000 | > 1000 | > 10000 | 489 | > 10000 | > 10000 | > 1000 | > 1000 | 7940 | > 5000 | > 300 | > 1000 | > 10000 | > 1000 | > 3000 | > 10000 | > 10000 | > 10000 | 411 | > 1000 | > 10000 | 232
ECC10 (Gastric Carcinoma) | 1130 | 237 | > 10000 | > 20000 | 50 | 1860 | > 10000 | > 10000 | > 10000 | 7.73 | > 1 | > 10000 | > 10000 | > 2000 | 131 | > 10000 | 713 | 4920 | > 10000 | 25.2 | 139 | > 10000 | 375 | > 300 | 21.8 | 6710 | > 1000 | > 3000 | > 10000 | > 10000 | 200 | 10.9 | 230 | > 10000 | 324
IGR-37 (Melanoma) | 846 | 3.42 | > 10000 | > 20000 | 45.9 | > 10000 | > 10000 | 4360 | > 10000 | 26.2 | > 1 | > 10000 | > 10000 | > 2000 | 746 | 3480 | > 1000 | > 10000 | > 10000 | > 1000 | 846 | 5360 | 361 | > 300 | > 1000 | > 10000 | > 1000 | > 3000 | > 10000 | > 10000 | > 10000 | 86.5 | > 1000 | 339 | 12.9
KARPAS-422 (B-Cell Non-Hodgkin's Lymphoma) | 768 | > 1000 | > 10000 | > 20000 | 92.2 | 3440 | 3560 | 4630 | 3050 | 17 | > 1 | > 10000 | 644 | 1510 | 634 | > 10000 | 206 | > 10000 | 1070 | > 1000 | 144 | 9320 | > 5000 | > 300 | 230 | > 10000 | > 1000 | > 3000 | > 10000 | > 10000 | > 10000 | 957 | 644 | > 10000 | 17.6
